Species: Rattus norvegicus
Assay: Open TG-GATES - Regimen: Daily Repeat
Type: toxicity, organism-based, Sprague-Dawley
Design: regimen Daily Repeat, gender Male, age 6 weeks
Conditions: in vivo, po, 1000 mg/kg, route gavage, dose level High; for Bas / Eos / Fbg / Ht / MCHC / Mono / Plat / RBC / Ret / WBC / MCV: tissue Blood; for KIDNEY_L / KIDNEY_R / KIDNEY_TOTAL: tissue Kidney; for ALT / AST / CRE / DBIL / GLC / IP / K / LDH / PL / RALB / TBIL / TC / TG / TP / gamma-GTP: tissue Plasma

Question: What does the source list for `CC(C)OC(=O)C(C)(C)Oc1ccc(C(=O)c2ccc(Cl)cc2)cc1` [FENOFIBRATE]?
Answer: TERMINAL_BW (72 h, time 3 day): 215.9 g; Bas (72 h, time 3 day): 0.4%; Eos (72 h, time 3 day): 1%; Fbg (72 h, time 3 day): 208.2 mg/dL; Ht (72 h, time 3 day): 39.5%; MCHC (72 h, time 3 day): 33%; Mono (72 h, time 3 day): 3.6%; Plat (72 h, time 3 day): 105.8 x10_4/uL; RBC (72 h, time 3 day): 610.6 x10_4/ul; Ret (72 h, time 3 day): 5.6%; WBC (72 h, time 3 day): 91.7 x10_2/uL; KIDNEY_L (72 h, time 3 day): 0.9 g; KIDNEY_R (72 h, time 3 day): 1 g; KIDNEY_TOTAL (72 h, time 3 day): 1.9 g; ALT (72 h, time 3 day): 51.4 IU/L; AST (72 h, time 3 day): 83.8 IU/L; CRE (72 h, time 3 day): 0.2 mg/dL; DBIL (72 h, time 3 day): 0.022 mg/dL; GLC (72 h, time 3 day): 176.8 mg/dL; IP (72 h, time 3 day): 7.3 mg/dL; K (72 h, time 3 day): 4.3 meq/L; LDH (72 h, time 3 day): 105.8 IU/L; PL (72 h, time 3 day): 129.2 mg/dL; RALB (72 h, time 3 day): 2.6 g/dL; TBIL (72 h, time 3 day): 0.048 mg/dL; TC (72 h, time 3 day): 57 mg/dL; TG (72 h, time 3 day): 33.6 mg/dL; TP (72 h, time 3 day): 5.4 g/dL; gamma-GTP (72 h, time 3 day): 1 IU/L; TERMINAL_BW ([…], time 7 day): 248.7 g; TERMINAL_BW ([…], time 14 day): 269.5 g; TERMINAL_BW ([…], time 28 day): 320.8 g; Bas ([…], time 7 day): 0%; Eos ([…], time 7 day): 1%; Fbg ([…], time 7 day): 222.2 mg/dL; Ht ([…], time 7 day): 39.1%; MCHC ([…], time 7 day): 32.3%; Mono ([…], time 7 day): 3.4%; Plat ([…], time 7 day): 147.3 x10_4/uL; RBC ([…], time 7 day): 612.2 x10_4/ul; Ret ([…], time 7 day): 5.8%; WBC ([…], time 7 day): 113.4 x10_2/uL; Bas ([…], time 14 day): 0.4%; Eos ([…], time 14 day): 1%; Fbg ([…], time 14 day): 192.8 mg/dL; Ht ([…], time 14 day): 39.9%; MCHC ([…], time 14 day): 33.3%; MCV ([…], time 14 day): 58.7 fL; Mono ([…], time 14 day): 3.4%; Plat ([…], time 14 day): 135.5 x10_4/uL; RBC ([…], time 14 day): 679.4 x10_4/ul; Ret ([…], time 14 day): 5.1%; WBC ([…], time 14 day): 149.7 x10_2/uL; Bas ([…], time 28 day): 0.4%; Eos ([…], time 28 day): 1.2%; Fbg ([…], time 28 day): 194.2 mg/dL; Ht ([…], time 28 day): 40.9%; MCHC ([…], time 28 day): 33.4%; MCV ([…], time 28 day): 57.2 fL; Mono ([…], time 28 day): 3.4%; Plat ([…], time 28 day): 117.4 x10_4/uL; RBC ([…], time 28 day): 716 x10_4/ul; Ret ([…], time 28 day): 3.9%; WBC ([…], time 28 day): 132.1 x10_2/uL; KIDNEY_L ([…], time 7 day): 1.1 g; KIDNEY_R ([…], time 7 day): 1.1 g; KIDNEY_TOTAL ([…], time 7 day): 2.2 g; KIDNEY_L ([…], time 14 day): 1.2 g; KIDNEY_R ([…], time 14 day): 1.2 g; KIDNEY_TOTAL ([…], time 14 day): 2.4 g; KIDNEY_L ([…], time 28 day): 1.4 g; KIDNEY_R ([…], time 28 day): 1.4 g; KIDNEY_TOTAL ([…], time 28 day): 2.8 g; ALT ([…], time 7 day): 45.8 IU/L; AST ([…], time 7 day): 80.6 IU/L; CRE ([…], time 7 day): 0.2 mg/dL; DBIL ([…], time 7 day): 0.018 mg/dL; GLC ([…], time 7 day): 178.8 mg/dL; IP ([…], time 7 day): 7.4 mg/dL; K ([…], time 7 day): 4.4 meq/L; LDH ([…], time 7 day): 122.6 IU/L; PL ([…], time 7 day): 142 mg/dL; RALB ([…], time 7 day): 3 g/dL; TBIL ([…], time 7 day): 0.034 mg/dL; TC ([…], time 7 day): 65.8 mg/dL; TG ([…], time 7 day): 38 mg/dL; TP ([…], time 7 day): 6.1 g/dL; gamma-GTP ([…], time 7 day): 1 IU/L; ALT ([…], time 14 day): 70 IU/L; AST ([…], time 14 day): 160.6 IU/L; CRE ([…], time 14 day): 0.2 mg/dL; DBIL ([…], time 14 day): 0.022 mg/dL; GLC ([…], time 14 day): 170.2 mg/dL; IP ([…], time 14 day): 6.6 mg/dL; K ([…], time 14 day): 4.1 meq/L; LDH ([…], time 14 day): 226.2 IU/L; PL ([…], time 14 day): 138 mg/dL; RALB ([…], time 14 day): 2.9 g/dL; TBIL ([…], time 14 day): 0.052 mg/dL; TC ([…], time 14 day): 50.6 mg/dL; TG ([…], time 14 day): 45.4 mg/dL; TP ([…], time 14 day): 6 g/dL; gamma-GTP ([…], time 14 day): 1 IU/L; ALT ([…], time 28 day): 55.8 IU/L; AST ([…], time 28 day): 132 IU/L; CRE ([…], time 28 day): 0.2 mg/dL; DBIL ([…], time 28 day): 0.024 mg/dL; GLC ([…], time 28 day): 176 mg/dL; IP ([…], time 28 day): 7.3 mg/dL; K ([…], time 28 day): 3.7 meq/L; LDH ([…], time 28 day): 205.2 IU/L; PL ([…], time 28 day): 139.8 mg/dL; RALB ([…], time 28 day): 2.9 g/dL; TBIL ([…], time 28 day): 0.06 mg/dL; TC ([…], time 28 day): 62.4 mg/dL; TG ([…], time 28 day): 47.6 mg/dL; TP ([…], time 28 day): 6.2 g/dL; gamma-GTP ([…], time 28 day): 1.2 IU/L
